Measurements as given in PubChem BioAssay (NCI).
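Each compound was tested at five concentrations against cells in 96-well plates for 48 hours. TGI: total growth inhibition.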

How the values were obtained:
Assay in all cases: inhibition of tumour cell growth, NCI panel, 48 h
SK-MEL-2 melanoma = test system: SK-MEL-2 melanoma
SF-539 CNS = test system: SF-539 CNS
PC-3 prostate = test system: PC-3 prostate
LOX IMVI melanoma = test system: LOX IMVI melanoma
SNB-75 CNS = test system: SNB-75 CNS
MDA-N = test system: MDA-N
UO-31 renal = test system: UO-31 renal
SN12C renal = test system: SN12C renal
DU-145 prostate = test system: DU-145 prostate
SF-295 CNS = test system: SF-295 CNS
OVCAR-5 ovarian = test system: OVCAR-5 ovarian
HS 578T breast = test system: HS 578T breast
EKVX NSCLC = test system: EKVX NSCLC
SK-MEL-28 melanoma = test system: SK-MEL-28 melanoma
ACHN renal = test system: ACHN renal
HT29 colon = test system: HT29 colon
NCI-H226 lung = test system: NCI-H226 lung
CCRF-CEM leukemia = test system: CCRF-CEM leukemia
SR leukemia = test system: SR leukemia
MDA-MB-231 breast = test system: MDA-MB-231 breast
HCT-116 colon = test system: HCT-116 colon
HL-60(TB) leukemia = test system: HL-60(TB) leukemia
COLO 205 colon = test system: COLO 205 colon
SK-OV-3 ovarian = test system: SK-OV-3 ovarian
SNB-19 CNS = test system: SNB-19 CNS
M14 melanoma = test system: M14 melanoma
HCC-2998 colon = test system: HCC-2998 colon
U251 CNS = test system: U251 CNS
T-47D breast = test system: T-47D breast
K-562 leukemia = test system: K-562 leukemia
A498 renal = test system: A498 renal
NCI-H460 lung = test system: NCI-H460 lung
UACC-257 melanoma = test system: UACC-257 melanoma
RXF 393 renal = test system: RXF 393 renal
SW-620 colon = test system: SW-620 colon
IGROV1 ovarian = test system: IGROV1 ovarian
HOP-62 NSCLC = test system: HOP-62 NSCLC
MOLT-4 leukemia = test system: MOLT-4 leukemia
NCI-H23 lung = test system: NCI-H23 lung
BT-549 breast = test system: BT-549 breast
TK-10 renal = test system: TK-10 renal
OVCAR-8 ovarian = test system: OVCAR-8 ovarian
MALME-3M melanoma = test system: MALME-3M melanoma
SK-MEL-5 melanoma = test system: SK-MEL-5 melanoma
OVCAR-3 ovarian = test system: OVCAR-3 ovarian
SF-268 CNS = test system: SF-268 CNS
NCI/ADR-RES ovarian = test system: NCI/ADR-RES ovarian
A549 NSCLC = test system: A549 NSCLC
RPMI-8226 leukemia = test system: RPMI-8226 leukemia
786-0 renal = test system: 786-0 renal
HCT-15 colon = test system: HCT-15 colon
UACC-62 melanoma = test system: UACC-62 melanoma
OVCAR-4 ovarian = test system: OVCAR-4 ovarian
KM12 colon = test system: KM12 colon
CAKI-1 renal = test system: CAKI-1 renal
MCF7 breast = test system: MCF7 breast
HOP-92 NSCLC = test system: HOP-92 NSCLC
MDA-MB-435 = test system: MDA-MB-435
NCI-H522 lung = test system: NCI-H522 lung

Structure (SMILES): O=c1cc(NNc2ccc(F)cc2)[nH]c(=O)[nH]1
- TGI (SK-MEL-2 melanoma): 45.6 µM
- TGI (SF-539 CNS): 44.5 µM
- TGI (PC-3 prostate): 32.5 µM
- TGI (LOX IMVI melanoma): > 100 µM
- TGI (SNB-75 CNS): 31.1 µM
- TGI (MDA-N): 30.8 µM
- TGI (UO-31 renal): 31.8 µM
- TGI (SN12C renal): 37.7 µM
- TGI (DU-145 prostate): > 100 µM
- TGI (SF-295 CNS): > 100 µM
- TGI (OVCAR-5 ovarian): 33.3 µM
- TGI (HS 578T breast): 90.8 µM
- TGI (EKVX NSCLC): 32.2 µM
- TGI (SK-MEL-28 melanoma): 33.3 µM
- TGI (ACHN renal): 31.7 µM
- TGI (HT29 colon): 33.9 µM
- TGI (NCI-H226 lung): 57.4 µM
- TGI (CCRF-CEM leukemia): 74.7 µM
- TGI (SR leukemia): > 100 µM
- TGI (MDA-MB-231 breast): 33.4 µM
- TGI (HCT-116 colon): 34.1 µM
- TGI (HL-60(TB) leukemia): > 100 µM
- TGI (COLO 205 colon): 30.9 µM
- TGI (SK-OV-3 ovarian): > 100 µM
- TGI (SNB-19 CNS): 37.1 µM
- TGI (M14 melanoma): 21 µM
- TGI (HCC-2998 colon): 51.3 µM
- TGI (U251 CNS): 40.8 µM
- TGI (T-47D breast): 71 µM
- TGI (K-562 leukemia): 81.2 µM
- TGI (A498 renal): > 100 µM
- TGI (NCI-H460 lung): 38.7 µM
- TGI (UACC-257 melanoma): > 100 µM
- TGI (RXF 393 renal): 34.3 µM
- TGI (SW-620 colon): 33.1 µM
- TGI (IGROV1 ovarian): 30.2 µM
- TGI (HOP-62 NSCLC): 32.7 µM
- TGI (MOLT-4 leukemia): 59.3 µM
- TGI (NCI-H23 lung): 82.7 µM
- TGI (BT-549 breast): 26.7 µM
- TGI (TK-10 renal): 36.8 µM
- TGI (OVCAR-8 ovarian): 53.3 µM
- TGI (MALME-3M melanoma): 43.8 µM
- TGI (SK-MEL-5 melanoma): 67.1 µM
- TGI (OVCAR-3 ovarian): 32.7 µM
- TGI (SF-268 CNS): 53.8 µM
- TGI (NCI/ADR-RES ovarian): 88.7 µM
- TGI (A549 NSCLC): 34.7 µM
- TGI (RPMI-8226 leukemia): > 100 µM
- TGI (786-0 renal): 25.5 µM
- TGI (HCT-15 colon): 31.7 µM
- TGI (UACC-62 melanoma): 33.5 µM
- TGI (OVCAR-4 ovarian): 21.4 µM
- TGI (KM12 colon): 24 µM

Structure (SMILES): CC(CCc1ccccc1)NCC(O)n1c(/N=N/N(C)C)nc2c1c(=O)n(C)c(=O)n2C (centres undefined)
- TGI (SK-MEL-2 melanoma): > 100 µM
- TGI (SF-539 CNS): > 100 µM
- TGI (PC-3 prostate): > 100 µM
- TGI (LOX IMVI melanoma): > 100 µM
- TGI (SNB-75 CNS): > 100 µM
- TGI (MDA-N): > 100 µM
- TGI (UO-31 renal): > 100 µM
- TGI (SF-295 CNS): > 100 µM
- TGI (CAKI-1 renal): > 100 µM
- TGI (OVCAR-5 ovarian): > 100 µM
- TGI (HS 578T breast): > 100 µM
- TGI (EKVX NSCLC): > 100 µM
- TGI (SK-MEL-28 melanoma): > 100 µM
- TGI (ACHN renal): > 100 µM
- TGI (HT29 colon): > 100 µM
- TGI (NCI-H226 lung): > 100 µM
- TGI (CCRF-CEM leukemia): > 100 µM
- TGI (MCF7 breast): > 100 µM
- TGI (SR leukemia): > 100 µM
- TGI (MDA-MB-231 breast): > 100 µM
- TGI (HCT-116 colon): > 100 µM
- TGI (HL-60(TB) leukemia): > 100 µM
- TGI (COLO 205 colon): > 100 µM
- TGI (SK-OV-3 ovarian): > 100 µM
- TGI (SNB-19 CNS): > 100 µM
- TGI (M14 melanoma): > 100 µM
- TGI (U251 CNS): > 100 µM
- TGI (T-47D breast): > 100 µM
- TGI (K-562 leukemia): > 100 µM
- TGI (A498 renal): > 100 µM
- TGI (NCI-H460 lung): > 100 µM
- TGI (UACC-257 melanoma): > 100 µM
- TGI (RXF 393 renal): > 100 µM
- TGI (SW-620 colon): > 100 µM
- TGI (IGROV1 ovarian): > 100 µM
- TGI (HOP-62 NSCLC): > 100 µM
- TGI (MOLT-4 leukemia): > 100 µM
- TGI (HOP-92 NSCLC): > 100 µM
- TGI (NCI-H23 lung): > 100 µM
- TGI (BT-549 breast): > 100 µM
- TGI (TK-10 renal): > 100 µM
- TGI (OVCAR-8 ovarian): > 100 µM
- TGI (MALME-3M melanoma): > 100 µM
- TGI (SK-MEL-5 melanoma): > 100 µM
- TGI (OVCAR-3 ovarian): > 100 µM
- TGI (SF-268 CNS): > 100 µM
- TGI (NCI/ADR-RES ovarian): > 100 µM
- TGI (A549 NSCLC): > 100 µM
- TGI (RPMI-8226 leukemia): > 100 µM
- TGI (786-0 renal): > 100 µM
- TGI (HCT-15 colon): > 100 µM
- TGI (MDA-MB-435): > 100 µM
- TGI (NCI-H522 lung): > 100 µM
- TGI (UACC-62 melanoma): > 100 µM
- TGI (OVCAR-4 ovarian): > 100 µM
- TGI (KM12 colon): > 100 µM

Structure (SMILES): Cc1ccc(N=Nc2c(O)c(C(=O)O)cc3ccccc23)c(S(=O)(=O)O)c1
- TGI (SK-MEL-2 melanoma): > 100 µM
- TGI (PC-3 prostate): > 100 µM
- TGI (LOX IMVI melanoma): > 100 µM
- TGI (SNB-75 CNS): > 100 µM
- TGI (MDA-N): > 100 µM
- TGI (UO-31 renal): > 100 µM
- TGI (SN12C renal): > 100 µM
- TGI (DU-145 prostate): > 100 µM
- TGI (SF-295 CNS): > 100 µM
- TGI (CAKI-1 renal): > 100 µM
- TGI (OVCAR-5 ovarian): > 100 µM
- TGI (HS 578T breast): > 100 µM
- TGI (EKVX NSCLC): > 100 µM
- TGI (SK-MEL-28 melanoma): > 100 µM
- TGI (ACHN renal): > 100 µM
- TGI (HT29 colon): > 100 µM
- TGI (NCI-H226 lung): > 100 µM
- TGI (CCRF-CEM leukemia): > 100 µM
- TGI (SR leukemia): > 100 µM
- TGI (MDA-MB-231 breast): > 100 µM
- TGI (HCT-116 colon): > 100 µM
- TGI (COLO 205 colon): > 100 µM
- TGI (SK-OV-3 ovarian): > 100 µM
- TGI (SNB-19 CNS): > 100 µM
- TGI (M14 melanoma): > 100 µM
- TGI (U251 CNS): > 100 µM
- TGI (T-47D breast): > 100 µM
- TGI (K-562 leukemia): > 100 µM
- TGI (A498 renal): > 100 µM
- TGI (UACC-257 melanoma): > 100 µM
- TGI (RXF 393 renal): > 100 µM
- TGI (SW-620 colon): > 100 µM
- TGI (IGROV1 ovarian): > 100 µM
- TGI (HOP-62 NSCLC): > 100 µM
- TGI (MOLT-4 leukemia): > 100 µM
- TGI (HOP-92 NSCLC): > 100 µM
- TGI (NCI-H23 lung): > 100 µM
- TGI (BT-549 breast): > 100 µM
- TGI (TK-10 renal): > 100 µM
- TGI (OVCAR-8 ovarian): > 100 µM
- TGI (MALME-3M melanoma): > 100 µM
- TGI (SK-MEL-5 melanoma): > 100 µM
- TGI (OVCAR-3 ovarian): > 100 µM
- TGI (SF-268 CNS): > 100 µM
- TGI (NCI/ADR-RES ovarian): > 100 µM
- TGI (A549 NSCLC): > 100 µM
- TGI (RPMI-8226 leukemia): > 100 µM
- TGI (786-0 renal): > 100 µM
- TGI (HCT-15 colon): > 100 µM
- TGI (MDA-MB-435): > 100 µM
- TGI (NCI-H522 lung): > 100 µM
- TGI (UACC-62 melanoma): > 100 µM
- TGI (OVCAR-4 ovarian): > 100 µM
- TGI (KM12 colon): > 100 µM
